This is an account of results in patent publication US7968525B1, “Use of RNA interference to validate new termiticide target sites and a method of termite control” (University of Florida Research Foundation, Inc., priority 2007, dated 2011).

One experiment relates to beta glucosidase. The conditions noted are these: in vitro enzyme assays, earlier work; cited from earlier work.
The subject of a further experiment is exoglucanases. The conditions noted are these: in vitro enzyme assays, earlier work; cited from earlier work.
The subject of another experiment is termite. The conditions noted are these: bioassays, earlier work; cited from earlier work.
In experiment [1] the test system is R. flavipes workers. The experiment can be described thus: dsRNA + JH III feeding assay, lethal times by probit analysis. The class given is in vivo, Reticulitermes flavipes. The conditions noted are these: JH III alone. How it is done:
Six additional developmental genes were targeted by combined dsRNA+JH III treatments: broad, farnesoic acid methyl transferase (FAMET-2), two family 15 cytochrome P450s (Cyp15-1, Cyp15-2), and two vitellogenin genes (Vit-1, Vit-2). dsRNAs corresponding to internal 500 base pair fragments of all six genes (see FIG. 22) were prepared as described under “description of the preferred embodiment”. Twenty μg of dsRNA was applied in 50 μL nanopure water to a penny-sized ([…]) paper disk. The disk was placed in a 5 cm tissue culture dish and 15 worker termites were added. Assays ran for 25 days at 60% relative humidity and 27 degrees C., with water being replenished and mortality/presoldier formation scored every 5th day.
LT50 and LT90 were determined from time-mortality data using probit analysis (SAS software; Cary, N.C.). In this context, the terms LT50 and LT90 refer to the estimated times at which 50% and 90% mortality occurs in response to the various RNAi treatments relative to JH III treatments alone (FIG. 23). Applying the six dsRNAs alone had no significant effects on survivorship. The LT50 and LT90 values for JH III alone were 34.5 and 65.7 days, respectively (as a result of fitness costs from elevated presoldier levels).

The subject of experiment [2] is R. flavipes workers. The experiment can be described thus: Hex-2 dsRNA feeding bioassay with and without JH (morphology, lethal molts). To be noted: feeding on Hex-2 dsRNA alone or JH alone. The format is in vivo, Reticulitermes flavipes. The procedure: dsRNA Feeding bioassays. dsRNA-mediated gene silencing was accomplished using voluntary feeding bioassays. Termites were pre-starved for 12 h to standardize their hunger status before the assay. The bioassay was run by placing groups of 15 worker termites into 35-mm tissue culture dishes that contained 18 mm diam. treated paper towel disks. Multiple and single dose dsRNA regimes were tested. All assays were carried out for 24-d. Paper disk moisture was monitored every other day. Every 8th day, old paper disks were replaced with new ones. These new paper disks were treated exactly the same as previous ones. Feeding (mg/dish) was determined by comparing weights of paper disks before and after confinement with termites, whereas body weight (mg/termite) was measured by comparing termite weights before and after 8-day paper consumption and then by correcting for the number of live termites at the time of sampling. Paper disks were dried in a drying oven before weighing. Mortality, paper consumption, body weight change, and/or presoldier formation were documented every 8th day. The complete experimental design included two colonies (Colony-1 and -2), with three replicate dishes per treatment per colony.
For Cell-1 dsRNA feeding bioassays, the experimental design included two treatments (triple and single dose Cell-1 dsRNA) and a control (3 doses of dsRNA buffer; Ambion; Austin, Tex.). […]

For the compound `OC[C@@H]1[C@@H](O[C@@H]2O[C@H](CO)[C@@H](O)[C@H](O)[C@H]2O)[C@H](O)[C@@H](O)c2nccn21` [CBI, cellobioimidazole], the “inhibition of beta glucosidase activity” value in the experiment with beta glucosidase is given as “Good to excellent inhibition”. Moreover, the “inhibition of exoglucanases activity” value in the experiment with exoglucanases is given as “Good to excellent inhibition”. For the same compound, in the experiment with termite, the termite mortality result is “only moderate termite mortality”.
In the case of `COC(=O)/C=C(\C)CC/C=C(\C)CC[C@H]1OC1(C)C` [JH III, juvenile hormone III], the LT50 in the experiment on R. flavipes workers [1] (time to 50% mortality) turned out to be 34.5 days. Also, the LT90 in the experiment on R. flavipes workers [1] (time to 90% mortality) is on record as 65.7 days. Besides, in the experiment on R. flavipes workers [2], the caste phenotype induced entry is “wildtype caste phenotypes”.
For fluromethyl cellobiose [FMCB], the “inhibition of beta glucosidase activity” value in the experiment with beta glucosidase is recorded as “Good to excellent inhibition”. The “inhibition of exoglucanases activity” value in the experiment with exoglucanases is “Good to excellent inhibition”. The termite mortality result in the experiment with termite was “only moderate termite mortality”.
